Source: patent US11702409B2, “Pyrazolyl derivatives useful as anti-cancer agents” (NOVARTIS AG, priority 2019, dated 2023)
pIC50: −log10 of the molar value.

Molecular target: KRasG12C (M1-K169, biotinylated on the N-terminus) (Homo sapiens (Human), UniProt P01116, G12C)
Test: Covalent competition assay (scintillation proximity assay, competition with radiolabeled covalent probe Compound B)
Format: binding
Settings: in vitro KRASG12C activity; 10 nM KRasG12C:GDP, 25 nM radio-ligand and 475 nM unlabelled ligand, incubated 2 hours; read-out: Covalent Competition Assay IC50
Protocol: The cells were lysed by 4 passages through an Avestin Emulsiflex at about 20000 psi and insoluble debris removed by centrifugation and filtered through a 0.45 μm Durapore membrane (Millipore). […] The protein in the flow through was subjected to a final polishing step on a HiLoad 16/60 Superdex 200 prep grade size-exclusion column pre-equilibrated with SEC-buffer (20 mM HEPES pH 7.4, 150 mM NaCl, 5 mM MgCl2, 1 μM GDP).
A scintillation proximity assay (SPA) was used to determine the potency of the compounds. This assay measures the ability of the test compound to compete with the radiolabeled covalent probe for binding to and covalently modify KRASG12C.
A serial dilution of the compounds to be tested is mixed with a fixed concentration of the radiolabeled covalent probe before incubation with KRASG12C:GDP as described below.
The reaction was started by addition of KRasG12C (M1-K169, biotinylated on the N-terminus) to the compounds and incubated for 2 hours with continuous agitation allowing for full modification of KRasG12C with probe or test compounds. […] The assay buffer contained 20 mM Tris-HCl pH 7.5 (Invitrogen), 150 mM NaCl (Sigma Aldrich), 0.1 mM MgCl2 (Sigma Aldrich), and 0.01% Tween-20 (Sigma Aldrich).
Evaluation was carried out using assay data analysis software (such as the standard Novartis in-house Helios software application, Novartis Institutes for BioMedical Research, unpublished) using the methods described in Formenko et al., Robust Regression for high-throughput screening.
Evaluation can also be carried out using commercially available software which is designed to derive IC50 values using 4-parameter fits (e.g. GraphPad Prism, XL fit).

Going from `C=CC(=O)N1CC2(CC(n3nc(C4=CN5CC(C)(C)N=C5C(F)=C4)c(-c4c(Cl)c(C)cc5[nH]ncc45)c3C)C2)C1` (single isomer, unassigned) [Example 73b] to `C=CC(=O)N1CC2(CC(n3nc(-c4cnc(N)c(F)c4)c(-c4c(Cl)c(C)cc5[nH]ncc45)c3C)C2)C1` (single isomer, unassigned) [Example 20a], the pIC50 rises from under 4.30 to 6.83. The second is the more potent here.

Compared with `C=CC(=O)N1CC2(CC(n3nc(-c4cncnc4)c(-c4c(Cl)c(Cl)cc5[nH]ncc45)c3C(F)F)C2)C1` (single isomer, unassigned) [Example 86b], `C=CC(=O)N1CC2(CC(n3nc(-c4cccnc4)c(-c4c(Cl)c(C)cc5[nH]ncc45)c3C(F)F)C2)C1` (single isomer, unassigned) [Example 87a] is higher in pIC50: under 4.30 for the first, 6.09 for the second.

`C=CC(=O)N1CC2(CC(n3nc(-c4cccnc4C)c(-c4c(Cl)c(C)cc5[nH]ncc45)c3C(F)F)C2)C1` (single isomer, unassigned) [Example 84a, 1-(6-(4-(5-Chloro-6-methyl-1H-indazol-4-yl)-5-(difluoromethyl)-3-(2-methylpyridin-3-yl)-1H-pyrazol-1-yl)-2-azaspiro[3.3]heptan-2-yl)prop-2-en-1-one] and `C=CC(=O)N1CC2(CC(n3nc(-c4ccccn4)c(-c4c(Cl)c(C)cc5[nH]ncc45)c3C)C2)C1` (single isomer, unassigned) [Example 46a, 1-(6-(4-(5-chloro-6-methyl-1H-indazol-4-yl)-5-methyl-3-(pyridin-2-yl)-1H-pyrazol-1-yl)-2-azaspiro[3.3]heptan-2-yl)prop-2-en-1-one] are within 0.2 log units of each other in pIC50: 6.27 for the first, 6.37 for the second.

First: C=CC(=O)N1CC2(CC(n3nc(-c4ccccc4)c(-c4c(Cl)c(C)cc5[nH]nc(N)c45)c3C)C2)C1 (single isomer, unassigned) [Example 70b, 1-(6-(4-(3-amino-5-chloro-6-methyl-1H-indazol-4-yl)-5-methyl-3-phenyl-1H-pyrazol-1-yl)-2-azaspiro[3.3]heptan-2-yl)prop-2-en-1-one]
Second: C=CC(=O)N1CC2(CC(n3nc(-c4ccc(CO)cc4)c(-c4c(Cl)c(C)cc5[nH]ncc45)c3C)C2)C1 (single isomer, unassigned) [Example 47a, 1-(6-{(4M)-4-(5-Chloro-6-methyl-1H-indazol-4-yl)-3-[4-(hydroxymethyl)phenyl]-5-methyl-1H-pyrazol-1-yl}-2-azaspiro[3.3]heptan-2-yl)prop-2-en-1-one]
The pIC50 of the first is 1.69 log units lower: 5.68 for the first, 7.37 for the second.

`C=CC(=O)N1CC2(CC(n3nc(-c4cncc(C#N)c4)c(-c4c(Cl)c(C)cc5[nH]ncc45)c3C)C2)C1` (single isomer, unassigned) [Example 10b] and `C=CC(=O)N1CC2(CC(n3nc(-c4ccnc(C#N)c4)c(-c4c(Cl)c(C)cc5[nH]ncc45)c3C)C2)C1` (single isomer, unassigned) [Example 9b] cannot be ordered by pIC50: under 4.30 for the first, under 4.30 for the second.

Compared with `C=CC(=O)N1CC2(CC(n3nc(-c4ccc5c(c4)N(C)CCO5)c(-c4c(Cl)c(C)cc5[nH]ncc45)c3C)C2)C1` (single isomer, unassigned) [Example 31a], `C=CC(=O)N1CC2(CC(n3nc(-c4ccc5c(c4)CCN5C(C)=O)c(-c4c(Cl)c(C)cc5[nH]ncc45)c3C)C2)C1` (single isomer, unassigned) [Example 22b] is lower in pIC50: 4.86 for the first, under 4.30 for the second. The first is the more potent here.

First: C=CC(=O)N1CC2(CC(n3nc(-c4ccnn4CC4CC4)c(-c4c(Cl)c(C)cc5[nH]ncc45)c3C)C2)C1 (single isomer, unassigned) [Example 45a, 1-(6-(4-(5-chloro-6-methyl-1H-indazol-4-yl)-2′-(cyclopropylmethyl)-5-methyl-1H,2′H-[3,3′-bipyrazol]-1-yl)-2-azaspiro[3.3]heptan-2-yl)prop-2-en-1-one]
Second: C=CC(=O)N1CC2(CC(n3nc(-c4cnn(S(=O)(=O)C5CC5)c4)c(-c4c(Cl)c(C)cc5[nH]ncc45)c3C)C2)C1 (single isomer, unassigned) [Example 36a]
The pIC50 of the first is 0.34 log units higher: 6.63 for the first, 6.29 for the second.

First: C=CC(=O)N1CC2(CC(n3nc(-c4ccc(C(=O)NCCN(C)C)cc4)c(-c4c(Cl)c(C)cc5[nH]ncc45)c3C)C2)C1 (single isomer, unassigned) [Example 65b]
Second: C=CC(=O)N1CC2(CC(n3nc(-c4ccc5c(cnn5CCN(C)C)c4)c(-c4c(Cl)c(C)cc5[nH]ncc45)c3C)C2)C1 (single isomer, unassigned) [Example 15b]
The pIC50 of the first is 0.56 log units lower: 4.76 for the first, 5.32 for the second. The second is the more potent here.

Going from `C=CC(=O)N1CC2(CC(n3nc(-c4cc5cn(C)nc5cn4)c(-c4c(Cl)c(C)cc5[nH]ncc45)c3C)C2)C1` [Example 77] to `C=CC(=O)N1CC2(CC(n3nc(-c4ccc5c(c4)ncn5C)c(-c4c(Cl)c(C)cc5[nH]ncc45)c3C)C2)C1` (single isomer, unassigned) [Example 30b], the pIC50 falls from 6.71 to under 4.30.

First: C=CC(=O)N1CC2(CC(n3nc(-c4cccnc4)c(-c4c(Cl)c(C)cc5[nH]ncc45)c3CC#N)C2)C1 [Example 88]
Second: C=CC(=O)N1CC2(CC(n3nc(-c4cncc(C#N)c4)c(-c4c(Cl)c(C)cc5[nH]ncc45)c3C)C2)C1 (single isomer, unassigned) [Example 10a]
The pIC50 of the first is 1.05 log units lower: 4.87 for the first, 5.92 for the second. The second is the more potent here.

Compared with `C=CC(=O)N1CC2(CC(n3nc(-c4ccc5nn(CC(C)(C)O)cc5c4)c(-c4c(Cl)c(C)cc5[nH]ncc45)c3C)C2)C1` (single isomer, unassigned) [Example 42a, 1-(6-{(4M)-4-(5-Chloro-6-methyl-1H-indazol-4-yl)-3-[2-(2-hydroxy-2-methylpropyl)-2H-indazol-5-yl]-5-methyl-1H-pyrazol-1-yl}-2-azaspiro[3.3]heptan-2-yl)prop-2-en-1-one], `C=CC(=O)N1CC2(CC(n3nc(-c4ccc5nnccc5c4)c(-c4c(Cl)c(C)cc5[nH]ncc45)c3C)C2)C1` (single isomer, unassigned) [Example 71b, 1-(6-(4-(5-chloro-6-methyl-1H-indazol-4-yl)-3-(cinnolin-6-yl)-5-methyl-1H-pyrazol-1-yl)-2-azaspiro[3.3]heptan-2-yl)prop-2-en-1-one] is lower in pIC50: 7.92 for the first, under 5.30 for the second.

Going from `C=CC(=O)N1CC2(CC(n3nc(-c4c(C)cncc4C)c(-c4c(Cl)c(C)cc5[nH]ncc45)c3C)C2)C1` (single isomer, unassigned) [Example 74b] to `C=CC(=O)N1CC2(CC(n3nc(-c4cscn4)c(-c4c(Cl)c(C)cc5[nH]ncc45)c3C)C2)C1` (single isomer, unassigned) [Example 51b, 1-(6-(4-(5-chloro-6-methyl-1H-indazol-4-yl)-5-methyl-3-(thiazol-4-yl)-1H-pyrazol-1-yl)-2-azaspiro[3.3]heptan-2-yl)prop-2-en-1-one], the pIC50 rises from under 4.30 to 4.44. The second is the more potent here.

`C=CC(=O)N1CC2(CC(n3nc(-c4cc(C)nn4CCN(C)C)c(-c4c(Cl)c(C)cc5[nH]ncc45)c3C)C2)C1` (single isomer, unassigned) [Example 92a] and `C=CC(=O)N1CC2(CC(n3nc(-c4c(C)cncc4C)c(-c4c(Cl)c(C)cc5[nH]ncc45)c3C)C2)C1` (single isomer, unassigned) [Example 74a] are within 0.2 log units of each other in pIC50: 5.85 for the first, 5.81 for the second.

First: C=CC(=O)N1CC2(CC(n3nc(-c4cccnc4)c(-c4c(Cl)ccc5[nH]ncc45)c3C)C2)C1 (single isomer, unassigned) [Example 19b]
Second: C=CC(=O)N1CC2(CC(n3nc(-c4cccnc4C)c(-c4c(Cl)ccc5[nH]ncc45)c3C)C2)C1 (single isomer, unassigned) [Example 89a]
The pIC50 of the first is lower: under 4.30 for the first, 5.64 for the second. The second is the more potent here.

Going from `C=CC(=O)N1CC2(CC(n3nc(-c4ccc(OCCOC)cc4F)c(-c4c(Cl)c(C)cc5[nH]ncc45)c3C)C2)C1` (single isomer, unassigned) [Example 60b, 1-(6-(4-(5-chloro-6-methyl-1H-indazol-4-yl)-3-(2-fluoro-4-(2-methoxyethoxy)phenyl)-5-methyl-1H-pyrazol-1-yl)-2-azaspiro[3.3]heptan-2-yl)prop-2-en-1-one] to `C=CC(=O)N1CC2(CC(n3nc(-c4ccc5c(c4)CCN5CCOC)c(-c4c(Cl)c(C)cc5[nH]ncc45)c3C)C2)C1` (single isomer, unassigned) [Example 44a], the pIC50 rises from under 5.30 to 7.72. The second is the more potent here.

First: C=CC(=O)N1CC2(CC(n3nc(-c4ccccc4)c(-c4c(Cl)c(C)cc5[nH]nc(N)c45)c3C)C2)C1 (single isomer, unassigned) [Example 70a, 1-{6-[(4M)-4-(3-Amino-5-chloro-6-methyl-1H-indazol-4-yl)-5-methyl-3-phenyl-1H-pyrazol-1-yl]-2-azaspiro[3.3]heptan-2-yl}prop-2-en-1-one]
Second: C=CC(=O)N1CC2(CC(n3nc(-c4ccc(=O)n(C)c4)c(-c4c(Cl)c(C)cc5[nH]ncc45)c3C)C2)C1 (single isomer, unassigned) [Example 6b]
The pIC50 of the first is higher: 7.52 for the first, under 4.30 for the second. The first is the more potent here.

Compared with `C=CC(=O)N1CC2(CC(n3nc(C4=CCC(F)(F)CC4)c(-c4c(Cl)c(C)cc5[nH]ncc45)c3C)C2)C1` (single isomer, unassigned) [Example 3a], `C=CC(=O)N1CC2(CC(n3nc(-c4ccc5nc(NC)ncc5c4)c(-c4c(Cl)c(C)cc5[nH]ncc45)c3C)C2)C1` (single isomer, unassigned) [Example 40b] is lower in pIC50: 6.33 for the first, under 4.30 for the second. The first is the more potent here.

`C=CC(=O)N1CC2(CC(n3nc(-c4cccnc4)c(-c4c(Cl)ccc5[nH]ncc45)c3C)C2)C1` (single isomer, unassigned) [Example 19a] was tested, and the pIC50 was 5.72.
